In the NIST ThermoML archive (doi:10.1016/j.jct.2016.10.023):

Test: xn = mol fraction of the nth substance listed
Conditions: Constant-volume piezometry

CCCCC [pentane] + CCCO
Conditions	mass density [kg/m3]
503.15 K, 5980 kPa, Fluid (supercritical or subcritical phases), x1 = 0.8	288.67
503.15 K, 6051 kPa, Fluid (supercritical or subcritical phases), x1 = 0.9	301.99
503.15 K, 6149 kPa, Fluid (supercritical or subcritical phases), x1 = 0.8	299.5
503.15 K, 6295 kPa, Fluid (supercritical or subcritical phases), x1 = 0.9	312.64
503.15 K, 6413 kPa, Liquid, x1 = 0.2	470.91
503.15 K, 6490 kPa, Fluid (supercritical or subcritical phases), x1 = 0.5	373.27
503.15 K, 6551 kPa, Fluid (supercritical or subcritical phases), x1 = 0.8	315.69
503.15 K, 6924 kPa, Fluid (supercritical or subcritical phases), x1 = 0.9	334.38
503.15 K, 7052 kPa, Fluid (supercritical or subcritical phases), x1 = 0.8	334.2
503.15 K, 7423 kPa, Fluid (supercritical or subcritical phases), x1 = 0.8	345.74
503.15 K, 7481 kPa, Fluid (supercritical or subcritical phases), x1 = 0.5	398.56
503.15 K, 7825 kPa, Fluid (supercritical or subcritical phases), x1 = 0.9	354.5
503.15 K, 8266 kPa, Fluid (supercritical or subcritical phases), x1 = 0.8	362.32
503.15 K, 8559 kPa, Fluid (supercritical or subcritical phases), x1 = 0.5	417.68
503.15 K, 10489 kPa, Fluid (supercritical or subcritical phases), x1 = 0.5	441.45
503.15 K, 10609 kPa, Liquid, x1 = 0.2	510.19
503.15 K, 11537 kPa, Fluid (supercritical or subcritical phases), x1 = 0.5	451.78
503.15 K, 12022 kPa, Fluid (supercritical or subcritical phases), x1 = 0.9	407.75
503.15 K, 12689 kPa, Fluid (supercritical or subcritical phases), x1 = 0.8	418.68
503.15 K, 14223 kPa, Fluid (supercritical or subcritical phases), x1 = 0.5	468.71
503.15 K, 18302 kPa, Liquid, x1 = 0.2	547.72
503.15 K, 21559 kPa, Fluid (supercritical or subcritical phases), x1 = 0.8	467.26
503.15 K, 26707 kPa, Fluid (supercritical or subcritical phases), x1 = 0.5	519.99
503.15 K, 30356 kPa, Fluid (supercritical or subcritical phases), x1 = 0.8	496.72
503.15 K, 30587 kPa, Liquid, x1 = 0.2	582.08
503.15 K, 37782 kPa, Liquid, x1 = 0.2	595.68
503.15 K, 41722 kPa, Fluid (supercritical or subcritical phases), x1 = 0.8	521.26
504.15 K, 4315 kPa, Liquid, x1 = 0.2	419.14
508.15 K, 4020 kPa, Gas, x1 = 0.2	114.44
508.15 K, 4961 kPa, Liquid, x1 = 0.2	419.05
510.15 K, 4548 kPa, Liquid, x1 = 0.2	383.7
511.15 K, 4773 kPa, Liquid, x1 = 0.2	391.53
513.15 K, 933 kPa, Gas, x1 = 0.5	15.53
513.15 K, 1283 kPa, Gas, x1 = 0.8	22.54
513.15 K, 1508 kPa, Gas, x1 = 0.2	24.94
513.15 K, 1686 kPa, Gas, x1 = 0.5	30
513.15 K, 1923 kPa, Gas, x1 = 0.8	36.71
513.15 K, 2226 kPa, Gas, x1 = 0.5	40.51
513.15 K, 2615 kPa, Gas, x1 = 0.5	51.12
513.15 K, 2796 kPa, Gas, x1 = 0.8	58.44
513.15 K, 2974 kPa, Gas, x1 = 0.2	53.03
513.15 K, 3284 kPa, Gas, x1 = 0.5	67.55
513.15 K, 3295 kPa, Gas, x1 = 0.8	73.83
513.15 K, 3462 kPa, Gas, x1 = 0.5	72.63
513.15 K, 3488 kPa, Gas, x1 = 0.9	83.42
513.15 K, 3816 kPa, Gas, x1 = 0.2	91.46
513.15 K, 3844 kPa, Gas, x1 = 0.5	88.95
513.15 K, 4033 kPa, Gas, x1 = 0.5	95.89
513.15 K, 4156 kPa, Fluid (supercritical or subcritical phases), x1 = 0.8	106.45
513.15 K, 4165 kPa, Gas, x1 = 0.2	114.41
513.15 K, 4349 kPa, Fluid (supercritical or subcritical phases), x1 = 0.9	123.41
513.15 K, 4538 kPa, Fluid (supercritical or subcritical phases), x1 = 0.9	134.18
513.15 K, 4567 kPa, Fluid (supercritical or subcritical phases), x1 = 0.5	121.95
513.15 K, 4703 kPa, Liquid, x1 = 0.2	350.76
513.15 K, 4837 kPa, Fluid (supercritical or subcritical phases), x1 = 0.5	144.18
513.15 K, 4850 kPa, Fluid (supercritical or subcritical phases), x1 = 0.8	140.37
513.15 K, 4865 kPa, Liquid, x1 = 0.2	378.83
513.15 K, 4965 kPa, Fluid (supercritical or subcritical phases), x1 = 0.9	164.03
513.15 K, 4968 kPa, Fluid (supercritical or subcritical phases), x1 = 0.5	154.56
513.15 K, 4968 kPa, Liquid, x1 = 0.2	383.64
513.15 K, 5032 kPa, Fluid (supercritical or subcritical phases), x1 = 0.8	156.12
513.15 K, 5068 kPa, Fluid (supercritical or subcritical phases), x1 = 0.2	391.49
513.15 K, 5068 kPa, Liquid, x1 = 0.2	391.49
513.15 K, 5086 kPa, Fluid (supercritical or subcritical phases), x1 = 0.5	165.22
513.15 K, 5197 kPa, Fluid (supercritical or subcritical phases), x1 = 0.8	169.87
513.15 K, 5255 kPa, Fluid (supercritical or subcritical phases), x1 = 0.5	182.94
513.15 K, 5265 kPa, Fluid (supercritical or subcritical phases), x1 = 0.8	176.11
513.15 K, 5295 kPa, Fluid (supercritical or subcritical phases), x1 = 0.9	189.54
513.15 K, 5344 kPa, Fluid (supercritical or subcritical phases), x1 = 0.8	180.91

Liquid, x1 = 0.2
Conditions	mass density [kg/m3]
508.65 K	391.58
509.65 K	383.71
510.35 K	378.89
512.85 K	350.77
